# Source: US6440957B1, “Cephalosporines having cyclic aminoguanidine substituents as antibiotics” (Biochemie Gesellschaft m.b.H., priority 1998, dated 2002)
# Tests used:
# Assay in all cases: Agar Dilution Test (NCCLS), MIC
# Assay type in all cases: cell-based
# [1] = test system: Klebsiella edwardsii, strain ATCC 10896; conditions: ATCC10896, Example 48 tested in form of the hydrochloride
# Excerpt: (§1) In particular, the active compounds of the invention show antimicrobial, e.g. antibacterial, activity against e.g. gram negative and gram positive bacteria, e.g. […] bacteria such as Pseudomonas, e.g. Pseudomonas aeruginosa; Escherichia, e.g. Escherichia coli; Enterobacter, e.g. Enterobacter cloacae; Klebsiella, e.g. Klebsiella edwardsii, Klebsiella pneumoniae; Enterococcus, e.g. Enterococcus faecalis; Moraxella, e.g. Moraxell catarrhalis; Streptococcus, e.g. Streptococcus pneumoniae, Streptococcus pyogenes; and Staphylococcus, e.g. Staphylococcus aureus; in vitro in the Agar Dilution Test according to National Commitee for Clinical Laboratory Standards (NCCLS) 1993, Document M7-A3Vol.13, No. 25: “Methods for dilution Antimicrobial Susceptibility Tests for Bacteria that Grow Aerobically—Third Edition, Approved Standard”. […] The active compounds of the invention show an surprising overall activity spectrum.
# [2] = test system: E. coli strain ATCC 35218; conditions: Escherichia coli, ATCC35218
# Excerpt: as §1
# [3] = test system: Enterobacter cloacae strains
# Excerpt: as §1
# [4] = test system: E. coli strain ATCC 10536; conditions: Escherichia coli, ATCC10536
# Excerpt: as §1
SMILES,MIC [1],MIC [2],MIC [3],MIC [4]
"CCN1CCN(N=CC2=C(C(=O)O)N3C(=O)C(NC(=O)/C(=N\OCF)c4nsc(N)n4)[C@H]3SC2)C1=NC (some centres unmarked) [Example 48, 7-{[(5-amino-1,2,4-thiadiazole-3-yl)-(Z)-(fluoromethoxyimino)-acetyl]amino}-3-{[(3-ethyl-2-methylimino-imidazolidine-1-yl)imino]methyl}-3-cephem-4-carboxylic acid]",~0.8 µg/mL,< 0.0125 µg/mL,< 0.0125 µg/mL,< 0.0125 µg/mL
"CC(C)(O/N=C(\C(=O)N[C@@H]1C(=O)N2C(C(=O)[O-])=C(C[n+]3ccccc3)CS[C@H]12)c1csc(N)n1)C(=O)O [ceftazidime, reference compound]",~1.6 µg/mL,–,–,–
